Results taken from patent US20250145606A1 (Arcus Biosciences, Inc., priority 2023, published 2025).
Marks after values point to notes of the source that are not given here.

What was measured:
c-Kit = c-Kit (Homo sapiens (Human), UniProt P10721); assay: Inhibition of c-Kit kinase activity (HTRF KinEASE-TK); type: biochemical; conditions: biochemical
Procedure, shortened: (§1)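 Recombinant kinases (2 nM CSF1R and c-Kit, 10 nM PDGFRα/β, 2× working) preincubated 1 h with compound in 50 mM HEPES pH 7.4, 5 mM MgCl2 (c-Kit) or 10 mM (others), 2 mM MnCl2; 2× ATP: c-Kit 16 μM, PDGFRα 1 μM, PDGFRβ 40 μM, CSF1R 20 μM. 120 min reaction at rt; TR-FRET 665/620 nm; IC50 by 4-parameter fit.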

PDGFRα = PDGFRα (Homo sapiens (Human), UniProt P16234); assay: Inhibition of PDGFRα kinase activity (HTRF KinEASE-TK); conditions: biochemical
Procedure, shortened: as §1

PDGFRβ = PDGFRβ (Homo sapiens (Human), UniProt P09619); assay: Inhibition of PDGFRβ kinase activity (HTRF KinEASE-TK); conditions: biochemical
Procedure, shortened: as §1

CSF1R = CSF1R (Homo sapiens (Human), UniProt P07333); assay: Inhibition of CSF1R kinase activity (HTRF KinEASE-TK); conditions: biochemical
Procedure, shortened: as §1

FLT3 = FLT3 (Homo sapiens (Human), UniProt P36888); assay: Inhibition of FLT3 kinase activity (HTRF KinEASE-TK); type: biochemical; conditions: biochemical
Procedure, shortened: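 FLT3 tyrosine kinase activity was measured with the HTRF KinEASE-TK kit by following phosphorylation of a biotinylated TK peptide. After the 45 min reaction, 10 μL of detection mix was added: 0.2 μM (2×) Streptavidin-XL665 and 2 μM (2×) TK-Antibody-Cryptate in detection buffer. After 60 min, TR-FRET was read on an Envision as the 665 nm/620 nm emission ratio with 320 nm excitation.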

[1] = system: Sprague Dawley rat hepatocytes; assay: Bioactivation assessment in rat hepatocytes; type: in vitro ADME; conditions: 5 μM, 4 hours
Method: (§2) Bioactivation Assessment Procedure
(§3) Pooled male Sprague Dawley rat (BioIVT), male beagle dog (BioIVT), male cynomolgus monkey (BioIVT), and a 50-donor pool of cryopreserved human hepatocytes (BioIVT) was thawed in pre-warmed 37° C. InVitroGro™ HT media (BioIVT), centrifuged, and resuspended in the InVitroGro™ HI media (BioIVT). The number of viable cells was determined by the Trypan blue exclusion method. The cells were diluted to a concentration of two million viable cells per milliliter (viability >80%) and seeded into round-bottom 96-well plates. The test articles were dissolved in DMSO and further diluted in 50% CH3CN and InVitroGro™ HI media with final concentrations of 0.05% DMSO and 0.5% CH3CN in the incubation mixture. Incubation was performed at a final concentration of one million cells per milliliter and 5 μM test compounds with continuous shaking at 1100 rpm in a 37° C., 5/95% CO2/air incubator with 100% relative humidity. After 4 hours, the samples were quenched by addition of 3 volumes of CH3CN, vortexed for 15 minutes, and centrifuged at 4200 rpm for 15 minutes at 10° C. (Sorvall Legend XTR centrifuge, Thermo Scientific, Langenselbold, Germany). 80 μL of the resulting supernatant was transferred into a new plate and mixed with 160 μL water followed by liquid chromatography-high resolution mass spectrometry (LC-HRMS) analysis.
(§4) Structural assignments of metabolites were determined through mass spectral analysis. The level of bioactivation was estimated based on the relative peak area of bioactivation products to all identified metabolites. The following equation was used: […]
(§5) Bioactivation products included glutathione conjugates, imine methides, quinones, diols, and other relevant metabolites.

beagle dog hepatocytes = assay: Bioactivation assessment in dog hepatocytes; type: in vitro ADME; conditions: 5 μM, 4 hours
Method: as §2, §3, §4, §5

Chain of FLT3 (P36888 27-993): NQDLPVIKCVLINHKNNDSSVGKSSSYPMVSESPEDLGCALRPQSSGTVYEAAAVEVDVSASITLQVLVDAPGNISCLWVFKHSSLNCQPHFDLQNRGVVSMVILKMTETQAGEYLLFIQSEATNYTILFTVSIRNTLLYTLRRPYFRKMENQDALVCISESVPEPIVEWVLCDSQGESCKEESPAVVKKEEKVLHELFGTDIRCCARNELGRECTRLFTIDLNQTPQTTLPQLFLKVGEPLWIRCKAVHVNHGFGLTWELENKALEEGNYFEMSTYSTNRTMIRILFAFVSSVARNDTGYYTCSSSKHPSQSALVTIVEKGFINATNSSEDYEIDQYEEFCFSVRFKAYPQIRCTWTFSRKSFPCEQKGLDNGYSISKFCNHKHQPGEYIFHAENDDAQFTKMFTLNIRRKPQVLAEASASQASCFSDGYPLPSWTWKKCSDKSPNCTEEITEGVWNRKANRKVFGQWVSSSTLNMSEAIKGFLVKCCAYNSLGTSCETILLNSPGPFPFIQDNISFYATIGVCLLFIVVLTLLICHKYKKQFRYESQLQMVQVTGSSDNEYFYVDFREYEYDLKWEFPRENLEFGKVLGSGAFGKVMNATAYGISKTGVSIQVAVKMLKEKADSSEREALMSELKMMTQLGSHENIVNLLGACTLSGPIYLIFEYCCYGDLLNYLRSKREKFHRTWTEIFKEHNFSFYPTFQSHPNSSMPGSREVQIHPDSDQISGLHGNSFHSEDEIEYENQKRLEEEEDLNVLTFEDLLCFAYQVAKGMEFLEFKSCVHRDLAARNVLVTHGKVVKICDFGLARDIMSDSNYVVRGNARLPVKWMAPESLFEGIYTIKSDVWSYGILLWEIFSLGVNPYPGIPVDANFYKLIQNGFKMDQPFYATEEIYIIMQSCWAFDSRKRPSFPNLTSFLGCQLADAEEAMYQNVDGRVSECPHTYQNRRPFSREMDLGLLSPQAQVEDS
Chain of PDGFRβ (P09619 33-1106): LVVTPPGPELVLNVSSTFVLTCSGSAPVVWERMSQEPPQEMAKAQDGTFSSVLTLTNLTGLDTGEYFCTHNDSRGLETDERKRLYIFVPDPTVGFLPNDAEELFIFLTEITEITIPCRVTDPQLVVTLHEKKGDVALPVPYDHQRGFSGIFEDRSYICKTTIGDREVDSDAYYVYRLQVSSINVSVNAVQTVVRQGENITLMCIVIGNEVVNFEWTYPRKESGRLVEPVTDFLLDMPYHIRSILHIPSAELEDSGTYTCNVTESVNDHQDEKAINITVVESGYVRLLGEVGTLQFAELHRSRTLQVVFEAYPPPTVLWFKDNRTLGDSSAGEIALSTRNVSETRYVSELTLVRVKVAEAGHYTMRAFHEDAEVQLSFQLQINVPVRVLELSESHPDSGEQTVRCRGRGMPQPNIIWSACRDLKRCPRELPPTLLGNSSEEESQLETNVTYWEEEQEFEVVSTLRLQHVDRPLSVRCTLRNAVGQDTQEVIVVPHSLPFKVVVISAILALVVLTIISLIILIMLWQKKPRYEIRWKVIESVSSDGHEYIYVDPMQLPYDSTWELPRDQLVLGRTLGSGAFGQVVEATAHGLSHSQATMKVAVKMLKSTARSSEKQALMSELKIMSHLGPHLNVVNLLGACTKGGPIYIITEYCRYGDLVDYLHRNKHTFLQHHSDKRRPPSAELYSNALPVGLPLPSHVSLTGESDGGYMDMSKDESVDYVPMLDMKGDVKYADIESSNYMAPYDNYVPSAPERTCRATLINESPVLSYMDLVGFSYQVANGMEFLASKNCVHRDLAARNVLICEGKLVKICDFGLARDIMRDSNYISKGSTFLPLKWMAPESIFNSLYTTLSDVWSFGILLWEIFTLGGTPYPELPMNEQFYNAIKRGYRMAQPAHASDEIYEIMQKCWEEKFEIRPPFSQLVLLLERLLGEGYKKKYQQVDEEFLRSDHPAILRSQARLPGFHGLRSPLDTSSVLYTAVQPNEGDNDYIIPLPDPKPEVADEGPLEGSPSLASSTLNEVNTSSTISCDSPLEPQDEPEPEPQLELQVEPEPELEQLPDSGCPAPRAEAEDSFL
Chain of PDGFRα (P16234 24-1089): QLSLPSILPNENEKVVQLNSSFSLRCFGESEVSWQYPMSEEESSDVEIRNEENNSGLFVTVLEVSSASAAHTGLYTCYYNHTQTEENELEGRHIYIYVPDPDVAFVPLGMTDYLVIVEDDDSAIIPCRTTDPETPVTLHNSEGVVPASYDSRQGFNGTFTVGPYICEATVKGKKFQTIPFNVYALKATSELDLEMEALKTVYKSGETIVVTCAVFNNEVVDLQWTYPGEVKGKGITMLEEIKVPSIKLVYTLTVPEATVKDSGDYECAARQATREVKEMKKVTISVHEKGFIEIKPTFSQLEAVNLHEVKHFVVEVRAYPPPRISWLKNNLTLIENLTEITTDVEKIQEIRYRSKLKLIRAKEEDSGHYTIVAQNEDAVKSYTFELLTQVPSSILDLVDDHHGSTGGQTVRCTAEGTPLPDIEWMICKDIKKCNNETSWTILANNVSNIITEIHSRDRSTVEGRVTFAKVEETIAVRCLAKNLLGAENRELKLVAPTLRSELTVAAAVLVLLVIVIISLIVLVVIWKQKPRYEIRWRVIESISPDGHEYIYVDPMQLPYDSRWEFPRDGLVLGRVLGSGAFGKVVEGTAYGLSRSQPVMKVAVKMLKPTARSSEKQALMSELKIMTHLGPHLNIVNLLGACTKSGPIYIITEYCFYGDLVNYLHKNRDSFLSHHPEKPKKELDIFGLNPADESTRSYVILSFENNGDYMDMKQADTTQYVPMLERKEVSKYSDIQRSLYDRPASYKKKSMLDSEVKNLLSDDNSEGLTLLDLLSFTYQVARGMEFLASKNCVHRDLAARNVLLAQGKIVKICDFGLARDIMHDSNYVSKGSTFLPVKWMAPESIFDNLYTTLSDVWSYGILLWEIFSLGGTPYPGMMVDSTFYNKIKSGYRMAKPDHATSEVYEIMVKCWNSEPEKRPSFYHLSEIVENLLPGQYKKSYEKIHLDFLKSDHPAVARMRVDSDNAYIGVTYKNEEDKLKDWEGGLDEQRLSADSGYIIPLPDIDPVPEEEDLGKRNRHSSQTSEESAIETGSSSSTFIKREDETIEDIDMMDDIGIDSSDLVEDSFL
Chain of c-Kit (P10721 26-976): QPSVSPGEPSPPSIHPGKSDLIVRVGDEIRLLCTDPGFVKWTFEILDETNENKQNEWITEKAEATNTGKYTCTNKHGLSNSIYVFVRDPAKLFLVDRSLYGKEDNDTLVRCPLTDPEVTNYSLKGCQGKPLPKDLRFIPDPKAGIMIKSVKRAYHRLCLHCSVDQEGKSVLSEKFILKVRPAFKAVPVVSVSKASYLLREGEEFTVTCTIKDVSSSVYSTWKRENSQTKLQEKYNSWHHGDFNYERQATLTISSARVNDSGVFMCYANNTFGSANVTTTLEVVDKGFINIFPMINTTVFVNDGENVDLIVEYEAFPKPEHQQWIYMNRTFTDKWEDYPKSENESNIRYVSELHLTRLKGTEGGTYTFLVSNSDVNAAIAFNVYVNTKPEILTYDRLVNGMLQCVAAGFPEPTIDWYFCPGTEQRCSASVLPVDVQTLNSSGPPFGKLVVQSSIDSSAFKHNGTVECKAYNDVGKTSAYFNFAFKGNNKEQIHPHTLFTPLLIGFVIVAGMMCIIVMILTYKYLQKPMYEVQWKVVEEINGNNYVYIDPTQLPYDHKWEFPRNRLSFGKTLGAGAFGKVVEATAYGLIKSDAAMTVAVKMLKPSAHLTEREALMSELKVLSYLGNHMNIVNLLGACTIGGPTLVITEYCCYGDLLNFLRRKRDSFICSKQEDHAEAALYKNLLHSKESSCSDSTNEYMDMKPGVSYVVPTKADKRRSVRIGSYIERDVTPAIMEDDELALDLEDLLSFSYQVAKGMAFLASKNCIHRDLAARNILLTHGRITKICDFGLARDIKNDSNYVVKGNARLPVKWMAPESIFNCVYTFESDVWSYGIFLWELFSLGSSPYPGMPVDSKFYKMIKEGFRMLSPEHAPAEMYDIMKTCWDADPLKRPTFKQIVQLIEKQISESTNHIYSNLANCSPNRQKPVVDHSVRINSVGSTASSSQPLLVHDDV
Chain of CSF1R (P07333 20-972): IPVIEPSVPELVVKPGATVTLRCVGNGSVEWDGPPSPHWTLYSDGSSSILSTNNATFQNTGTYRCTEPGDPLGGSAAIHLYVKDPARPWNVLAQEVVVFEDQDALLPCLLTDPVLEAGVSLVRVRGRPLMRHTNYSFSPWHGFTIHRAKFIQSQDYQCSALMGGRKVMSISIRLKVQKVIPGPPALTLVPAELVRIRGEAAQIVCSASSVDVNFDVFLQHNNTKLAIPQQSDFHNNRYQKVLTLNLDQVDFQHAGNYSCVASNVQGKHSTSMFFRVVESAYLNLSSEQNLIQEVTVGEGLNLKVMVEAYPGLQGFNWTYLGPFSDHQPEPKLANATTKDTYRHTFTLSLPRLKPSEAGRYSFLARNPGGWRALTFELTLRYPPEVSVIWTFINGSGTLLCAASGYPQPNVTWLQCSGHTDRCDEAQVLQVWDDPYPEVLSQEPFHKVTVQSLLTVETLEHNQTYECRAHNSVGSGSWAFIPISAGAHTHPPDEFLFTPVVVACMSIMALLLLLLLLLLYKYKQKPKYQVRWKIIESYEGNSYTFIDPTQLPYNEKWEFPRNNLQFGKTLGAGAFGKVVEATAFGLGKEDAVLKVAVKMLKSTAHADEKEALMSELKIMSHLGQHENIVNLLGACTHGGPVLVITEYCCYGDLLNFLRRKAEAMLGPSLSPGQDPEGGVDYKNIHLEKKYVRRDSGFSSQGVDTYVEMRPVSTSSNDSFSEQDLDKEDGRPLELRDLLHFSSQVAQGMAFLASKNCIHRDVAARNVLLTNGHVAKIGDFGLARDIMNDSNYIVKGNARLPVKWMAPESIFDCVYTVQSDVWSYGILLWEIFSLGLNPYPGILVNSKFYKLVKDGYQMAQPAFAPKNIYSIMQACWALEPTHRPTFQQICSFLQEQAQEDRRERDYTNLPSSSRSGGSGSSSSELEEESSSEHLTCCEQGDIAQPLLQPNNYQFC

Compound	Percent of total metabolism via bioactivation, Rat hepatocytes [1]	Percent of total metabolism via bioactivation, Dog hepatocytes (beagle dog hepatocytes)	IC50 (c-Kit; HTRF KinEASE-TK) [nM]	IC50 (PDGFRα; HTRF KinEASE-TK) [nM]	IC50 (PDGFRβ; HTRF KinEASE-TK) [nM]	IC50 (CSF1R; HTRF KinEASE-TK) [nM]	IC50 (FLT3; HTRF KinEASE-TK) [nM]	IC50 (c-Kit) [nM]	IC50 (PDGFRα) [nM]	IC50 (PDGFRβ) [nM]	IC50 (CSF1R) [nM]	IC50 (FLT3) [nM]
Cc1ncc(C(=O)Nc2cc(C(=O)Nc3ccc(CC(F)(F)F)cn3)c(F)cc2C)s1 [Example 1, N-[4-Fluoro-2-methyl-5-[[5-(2,2,2-trifluoroethyl)pyridin-2-yl]carbamoyl]phenyl]-2-methyl-1,3-thiazole-5-carboxamide]	3-7%^b	<1%^b						< 100	> 1000	> 1000	> 1000	> 1000
Cc1ncc(C(=O)Nc2cc(C(=O)Nc3ccc(C4CC4)cn3)c(F)cc2C)s1 [Example 3, N-[5-[(5-Cyclopropylpyridin-2-yl)carbamoyl]-4-fluoro-2-methylphenyl]-2-methyl-1,3-thiazole-5-carboxamide]	<0.1%	2%						< 100	> 1000	> 1000	> 1000	> 1000
Cc1ncc(C(=O)Nc2cc(C(=O)Nc3ccc(CC4CC4)cn3)c(F)cc2C)s1 [Example 5, N-[5-[[5-(Cyclopropylmethyl)pyridin-2-yl]carbamoyl]-4-fluoro-2-methylphenyl]-2-methyl-1,3-thiazole-5-carboxamide]	<1%	4%						< 100	> 1000	> 1000	> 1000	> 1000

The next lines start with results.

Percent of total metabolism via bioactivation, Rat hepatocytes [1]	Percent of total metabolism via bioactivation, Dog hepatocytes (beagle dog hepatocytes)	IC50 (c-Kit; HTRF KinEASE-TK) [nM]	IC50 (PDGFRα; HTRF KinEASE-TK) [nM]	IC50 (PDGFRβ; HTRF KinEASE-TK) [nM]	IC50 (CSF1R; HTRF KinEASE-TK) [nM]	IC50 (FLT3; HTRF KinEASE-TK) [nM]	Compound	IC50 (c-Kit) [nM]	IC50 (PDGFRα) [nM]	IC50 (PDGFRβ) [nM]	IC50 (CSF1R) [nM]	IC50 (FLT3) [nM]
1-2%ª	3-4%^a						Cc1ncc(C(=O)Nc2cc(C(=O)Nc3ccc(OC4CC4)cn3)c(F)cc2C)s1 [Example 2, N-[5-[(5-Cyclopropyloxypyridin-2-yl)carbamoyl]-4-fluoro-2-methylphenyl]-2-methyl-1,3-thiazole-5-carboxamide]	< 100	> 1000	> 1000	> 1000	> 1000
<1%^a	<1%^a						Cc1ncc(C(=O)Nc2cc(C(=O)Nc3cnc(OCC(C)(F)F)cn3)c(F)cc2C)s1 [Example 4, N-[5-[[5-(2,2-Difluoropropoxy)pyrazin-2-yl]carbamoyl]-4-fluoro-2-methylphenyl]-2-methyl-1,3-thiazole-5-carboxamide]	< 100	> 1000	> 1000	> 1000	> 1000
2%	<1%	< 100	> 1000	> 1000	> 1000	> 1000	Cc1ncc(C(=O)Nc2cc(C(=O)Nc3ccc(OC(F)F)cn3)c(F)cc2C)s1 [Example 38, N-[5-[[5-(difluoromethoxy)pyridin-2-yl]carbamoyl]-4-fluoro-2-methylphenyl]-2-methyl-1,3-thiazole-5-carboxamide]					
80%	97%	< 100	> 1000	> 1000	> 1000	> 1000	Cc1ncc(C(=O)Nc2cc(C(=O)Nc3ccc(CC(F)(F)F)cn3)c(F)cc2Cl)s1 [Example 46, N-[2-chloro-4-fluoro-5-[[5-(2,2,2-trifluoroethyl)pyridin-2-yl]carbamoyl]phenyl]-2-methyl-1,3-thiazole-5-carboxamide]					
